# Test results published in patent US8728977B2, “Herbicidal combinations comprising tefuryltrione for use in rice crops” (Bayer Cropscience AG, priority 2009, dated 2014).
# Where two headings read alike, the source gives them in different places.
# Test system: LEFCH (Leptochloa chinensis)
# Test: Post-emergence action against LEFCH (greenhouse pot test, visual evaluation)
# Format: in vivo
# Details: for pest or weed control at 50 g/ha: read-out: Action against LEFCH
# Description: The herbicidal activity of the active substances or active substance mixtures was evaluated visually from the treated variants in comparison with untreated control variants. In this connection, damage to and development of all plant parts above ground was included. The evaluation was carried out according to a percentage scale (100% action=all plants dead; 50% action=50% of the plants and green plant parts dead; 0% action=no recognizable action=as untreated control plot).
# Seeds or root pieces of mono- and dicotyledonous weeds are placed in sandy clay soil in pots, covered with earth and secured in a greenhouse under good growing conditions (temperature, air humidity, water supply). Approximately three weeks after sowing, the test plants are treated with the compositions according to the invention. The compositions according to the invention formulated as wettable powders or as emulsion concentrates are sprayed, in spray application, on to the green plant parts in different dosages with a water application rate of 600 to 800 I/ha (corrected). Immediately up to a few days after application, the test receptacles accumulate water over the ground surface by up to 30 mm. With the water application (submerged application), on the other hand, the ground in the closed test receptacle is already covered with the paddy water up to 30 mm at the time of the application. The formulated active substances are here added directly to the paddy water. After an exposure time of the test plants in the greenhouse of an additional 3 to 4 weeks under optimum growing conditions, the effect of the preparations is evaluated visually in comparison with untreated controls. […] In this connection, actions of the combinations according to the invention which exceed the formal sum of the actions of the herbicides when applied individually are frequently observed. The values observed for the tests show, with suitable low dosages, an action of the combinations which lies above the expected values according to Colby.
# If the observed activity values already exceed the formal sum of the values for the tests with individual applications, then they likewise exceed the expected value according to Colby, which is calculated according to the following formula and is likewise regarded as an indication of synergy (cf. S. R. Colby in Weeds, 15 (1967), pp. 20 to 22):
# [formula] In this connection: • A, B=action of the component A or B in percent at a dosage of a or b grams ai/ha. • E=expected value in % at a dosage of a+b grams ai/ha.
# The abbreviation LEFCH is the harmful plant Leptochloa chinensis.
# [1] = dosage 50 g/ha, single herbicide
# [2] = dosage 12.5 g/ha, single herbicide
# [3] = dosage 2.5 g/ha, single herbicide
# [4] = dosage 75 g/ha, single herbicide
# [5] = Dinebra chinensis, dosage 50 g/ha, single herbicide
compound,measurement,setting,value
"COc1cnc(OC)n2nc(NS(=O)(=O)c3c(OCC(F)F)cccc3C(F)(F)F)nc12 [Compound B10, penoxsulam]",pest or weed control at 15 g/ha,"Dinebra chinensis, dosage 15 g/ha, single herbicide",20%
"COCc1cccc(C(O)c2nc(OC)cc(OC)n2)c1NS(=O)(=O)C(F)F (stereo not shown) [Compound B15, pyrimisulfan]",Action against LEFCH,[1],20%
"COCCOCc1nc(C(F)(F)F)ccc1C(=O)C1C(=O)C2CCC(C2)C1=O (stereo not shown) [Compound B23, 3-({2-[(2-methoxyethoxy)methyl]-6-(trifluoromethyl)pyridin-3-yl}-carbonyl)bicyclo[3.2.1]octane-2,4-dione]",pest or weed control at 12.5 g/ha,"Dinebra chinensis, dosage 12.5 g/ha, single herbicide",25%
"CC(C)c1nn(C(=O)NC(C)(C)C)c(=O)n1N [Compound B1, amicarbazone]",Action against LEFCH,[2],10%
"COCC(=O)OC(c1ncccc1S(=O)(=O)NC(=O)Nc1nc(OC)cc(OC)n1)C(C)F (stereo not shown) [Compound B6, flucetosulfuron]",Action against LEFCH,[3],20%
"Cn1nc(C(F)(F)F)c(CS(=O)(=O)C2=NOC(C)(C)C2)c1OC(F)F [Compound B17, pyroxasulfone]",pest or weed control at 7.5 g/ha,"Dinebra chinensis, dosage 7.5 g/ha, single herbicide",15%
"CCc1cc(C)cc(CC)c1-c1c(OC(=O)C(C)(C)C)n2n(c1=O)CCOCC2 [Compound B11, pinoxaden]",pest or weed control at 10 g/ha,"Dinebra chinensis, dosage 10 g/ha, single herbicide",15%
"Nc1cc(Cl)nc(C(=O)O)c1Cl [Compound B2, aminopyralid]",Action against LEFCH,"dosage 7.5 g/ha, single herbicide",30%
"COc1cc(OC)nc(NC(=O)NS(=O)(=O)Nc2ccccc2C(=O)N(C)C)n1 [Compound B9, orthosulfamuron]",Action against LEFCH,"dosage 30 g/ha, single herbicide",40%
"C[C@@H](Oc1ccc(Oc2nc3ccc(Cl)cc3o2)cc1)C(=O)N(C)c1ccccc1F [Compound B8, metamifop]",Action against LEFCH,[4],15%
CS(=O)(=O)c1ccc(C(=O)C2C(=O)CCCC2=O)c(Cl)c1COCC1CCCO1 (stereo not shown) [tefuryltrione],Action against LEFCH,[1],20%
"COC(=O)c1nc(C2CC2)nc(N)c1Cl [Compound B3, aminocyclopyrachlor-methyl]",Action against LEFCH,[1],10%
"CCCc1ccc2nc(Cl)c(S(=O)(=O)NC(=O)Nc3nc(OC)cc(OC)n3)n2n1 [Compound B12, propyrisulfuron]",Action against LEFCH,[1],30%
"COc1cc(OC)n2nc(NS(=O)(=O)c3c(C(F)(F)F)ccnc3OC)nc2n1 [Compound B18, pyroxsulam]",Action against LEFCH,"dosage 15 g/ha, single herbicide",20%
"CC(C)N(C)S(=O)(=O)NC(=O)c1cc(-n2c(=O)cc(C(F)(F)F)n(C)c2=O)c(F)cc1Cl [Compound B19, saflufenacil]",pest or weed control at 3 g/ha,"Dinebra chinensis, dosage 3 g/ha, single herbicide",8%
"Cc1nn(C)c(O)c1C(=O)c1ccc(C(F)(F)F)cc1S(C)(=O)=O [Compound B14, pyrasulfotole]",Action against LEFCH,[2],30%
"COc1cc(OC)nc(NC(=O)NS(=O)(=O)Nc2ccccc2C(=O)C2CC2)n1 [Compound B4, cyclosulfamuron]",pest or weed control at 50 g/ha,[5],20%
"CC(C)N(C(=O)n1cnn(-c2ccc(Cl)cc2Cl)c1=O)c1ccc(F)cc1F [Compound B7, ipfencarbazone]",Action against LEFCH,[1],25%
"COc1cc(OC)nc(NC(=O)NS(=O)(=O)c2c(C3=NOCC(C)O3)c(Cl)nn2C)n1 (stereo not shown) [Compound B20, 3-chloro-N-[(4,6-dimethoxypyrimidin-2-yl)carbamoyl]-1-methyl-4-(5-methyl-5,6-dihydro-1,4,2-dioxazin-3-yl)-1H-pyrazole-5-sulfonamide]",pest or weed control at 50 g/ha,[5],15%
"COC(=O)c1nc(-c2ccc(Cl)c(OC)c2F)cc(N)c1Cl [Compound B22, methyl 4-amino-3-chloro-6-(4-chloro-2-fluoro-3-methoxyphenyl)pyridine-2-carboxylate]",pest or weed control at 50 g/ha,Dinebra chinensis,10%
"C#CCN(C)c1c(C#N)cnn1-c1nn2c(c1Cl)CCCC2 [Compound B13, pyraclonil]",Action against LEFCH,[4],30%
"Cc1ccc2c(c1)[C@H](Nc1nc(N)nc(C(C)F)n1)[C@@H](C)C2 (stereo partly shown) [Compound B5, indaziflam]",Action against LEFCH,[3],25%
